One experiment concerns SKOV3 cells. In words: Taxol-induced apoptosis (caspase activity). It counts as cell-based, human. The protocol: The ability of LPA to protect ovarian tumor cells against apoptosis when exposed to clinically-relevant levels of the chemotherapeutic agent, paclitaxel (Taxol) was investigated. SKVO3 cells were treated with 1% FBS (S), Taxol ([…]), +/− anti-LPA mAbs for 24 h. […] Apoptosis was assayed by measurement of the caspase activity as recommended by the manufacturer (Promega). As anticipated, LPA protected most of the cancer cell lines tested from taxol-induced cell death. […] Moreover, the anti-LPA antibody was able to remove the protection provided by serum. Serum is estimated to contain about […] LPA. […] Taxol-induced caspase activation was enhanced by the addition of all 3 of the anti-LPA mAbs to the culture medium.

Experiment [1] in a line: Direct ELISA, chimeric antibody and mutants binding to S1P. The conditions noted are these: for Binding: antibody 0.1 ug/ml, optical density at 450 nm. As to the method:
Microtiter ELISA plates (Costar) were coated overnight with S1P diluted in 1 M Carbonate Buffer (pH 9.5) at 37° C. for 1 hr. Plates were washed with PBS (137 mM NaCl, 2.68 mM KCl, 10.1 mM Na2HPO4, 1.76 mM KH2PO4; pH 7.4) and blocked with PBS/BSA/Tween-20 for 1 hr at room temp or overnight at 4° C. For the primary incubation (1 hr at room temp.), a standard curve using the anti-S1P mAb and the samples to be tested for binding was built using the following set of dilutions: 0.4 μg/mL, 0.2 μg/mL, 0.1 μg/mL, 0.05 μg/mL, 0.0125 μg/mL, and 0 μg/mL, and 100 μl added to each well. Plates were washed and incubated with 100 μl per well of HRP conjugated goat anti-mouse (1:20,000 dilution) (Jackson Immuno Research) or HRP conjugated goat anti-human (H+L) diluted 1:50,000 (Jackson Immuno Research) for 1 hr at room temperature. After washing, the enzymatic reaction was detected with tetramethylbenzidine (Sigma) and stopped by adding 1 M H2SO4. The optical density (OD) was measured at 450 nm using a Thermo Multiskan EX. Raw data were transferred to GraphPad software for analysis.
The chromogenic reaction was measured and reported as Optical density (OD). The concentration of the panel of antibodies was 0.1 ug/ml. No interaction of the second antibody with S1P-coated matrix alone was detected.
A general note: In an ELISA, binding on a coated surface is turned into a signal by an enzyme label.

Another experiment relates to human cancer cell lines. Briefly: LPA-induced cancer cell proliferation. Format: cell-based. The conditions noted are these: LPA 0.01 mM to 10 mM; SKOV3, OVCAR3, Panc-1, Caki-1, DU-145, A549, HCT-116; also rat RBL-2H3. As to the method:
LPA is a potent growth factor supporting cell survival and proliferation by stimulation of Gi, Gq and G12/13 via GPCR-receptors and activation of downstream signaling events. Cell lines were tested for their proliferative response to LPA ([…]). Cell proliferation was assayed by using the cell proliferation assay kit from Chemicon (Temecula Calif.) (Panc-1) and the Cell-Blue titer from Pierce (Caki-1). Each data point is the mean of three independent experiments. […] Even though tumor-derived cells normally have high basal levels of proliferation, LPA appears to further augment proliferation in most tumor cell lines. Anti-LPA mAbs (B7 and B58) were assessed for the ability to inhibit LPA-induced proliferation in selected human cancer cell lines.

The test system of a further experiment is Caki-1 cells. In words: LPA-induced IL-8 release, ELISA of supernatants. Format: cell-based, human. Conditions: 18:1 LPA 0.2 mM, cells without mAb, 24 h. As to the method: Three anti-LPA mAbs (B3, B7 and B58) were tested for their abilities to reduce in vitro IL-8 production compared to a non-specific antibody (NS). Caki-1 cells were seeded in 96 well plates and grown to confluency. After overnight serum starvation, cells were treated with 18:1 LPA (0.2 mM) with or without anti-LPA mAb B3, B7, B58 or NS (Non-Specific). After 24 h, cultured supernatants of renal cancer cells (Caki-1), treated with or without LPA and in presence of increasing concentrations of the anti-LPA mAbs B3, B7 and B58, were collected and analyzed for IL-8 levels using a commercially available ELISA kit (Human Quantikine Kit, R&D Systems, Minneapolis, Minn.). […] Similar results were obtained with the other well-known pro-angiogenic factor, VEGF. The inhibition of IL-8 release by the anti-LPA mAbs was also observed in other cancerous cell lines such as the pancreatic cell line Panc-1.

The nature of experiment [2]: Competitive ELISA, specificity of anti-S1P mAb (free lipid competes with plate-bound S1P). It counts as binding. Conditions: competitor free S1P. The protocol: Screening of serum and cell supernatant for S1P-specific antibodies was by direct ELISA using the thiolated S1P analog described in Example 1 (i.e., compound 10) as the antigen. A standard ELISA was performed, as described below, except that 50 ul of sample (serum or cell supernatant) was diluted with an equal volume of PBS/0.1% Tween-20 (PBST) during the primary incubation. ELISAs were performed in 96-well high binding ELISA plates (Costar) coated with 0.1 μg of chemically-synthesized compound 10 conjugated to BSA in binding buffer (33.6 mM Na2CO3, 100 mM NaHCO3; pH 9.5). The thiolated-S1P-BSA was incubated at 37° C. for 1 hr. at 4° C. overnight in the ELISA plate wells. The plates were then washed four times with PBS (137 mM NaCl, 2.68 mM KCl, 10.14 mM Na2HPO4, 1.76 mM KH2PO4; pH 7.4) and blocked with PBST for 1 hr. at room temperature. For the primary incubation step, 75 uL of the sample (containing the S1P to be measured), was incubated with 25 uL of 0.1 ug/mL anti-S1P mAb diluted in PBST and added to a well of the ELISA plate. […] Optical density of the samples was determined by measurement at 450 nm using an EL-X-800 ELISA plate reader (Bio-Tech).
For cross reactivity, a competitive ELISA was performed as described above, except for the following alterations (FIG. 4). […] Biotin incorporation was determined as per kit protocol and ranged from 7 to 11 biotin molecules per antibody. […]

Experiment [3] in a line: Competitive ELISA, specificity of anti-S1P mAb. Format: binding. The protocol:
Screening of serum and cell supernatant for S1P-specific antibodies was by direct ELISA using the thiolated S1P analog described in Example 1 (i.e., compound 10) as the antigen. A standard ELISA was performed, as described below, except that 50 ul of sample (serum or cell supernatant) was diluted with an equal volume of PBS/0.1% Tween-20 (PBST) during the primary incubation. ELISAs were performed in 96-well high binding ELISA plates (Costar) coated with 0.1 μg of chemically-synthesized compound 10 conjugated to BSA in binding buffer (33.6 mM Na2CO3, 100 mM NaHCO3; pH 9.5). The thiolated-S1P-BSA was incubated at 37° C. for 1 hr. at 4° C. overnight in the ELISA plate wells. The plates were then washed four times with PBS (137 mM NaCl, 2.68 mM KCl, 10.14 mM Na2HPO4, 1.76 mM KH2PO4; pH 7.4) and blocked with PBST for 1 hr. at room temperature. For the primary incubation step, 75 uL of the sample (containing the S1P to be measured), was incubated with 25 uL of 0.1 ug/mL anti-S1P mAb diluted in PBST and added to a well of the ELISA plate. Each sample was performed in triplicate wells. Following a 1 hr. incubation at room temperature, the ELISA plates were washed four times with PBS and incubated with 100 ul per well of 0.1 ug/mL HRP goat anti-mouse secondary (Jackson Immunoresearch) for 1 hr. at room temperature. Plates were then washed four times with PBS and exposed to tetramethylbenzidine (Sigma) for 1-10 minutes. The detection reaction was stopped by the addition of an equal volume of 1M H2SO4. Optical density of the samples was determined by measurement at 450 nm using an EL-X-800 ELISA plate reader (Bio-Tech).
For cross reactivity, a competitive ELISA was performed as described above, except for the following alterations (FIG. 4). The primary incubation consisted of the competitor (S1P, SPH, LPA, etc.) and a biotin-conjugated anti-S1P mAb. Biotinylation of the purified monoclonal antibody was performed using the EZ-Link Sulfo-NHS-Biotinylation kit (Pierce). Biotin incorporation was determined as per kit protocol and ranged from 7 to 11 biotin molecules per antibody. […]

A short description of experiment [4]: ELISA with exchanged crosslinker or protein carrier in the laydown material. It counts as binding. An excerpt: For example, the normal crosslinker SMCC was exchanged for IOA in conjugating the thiolated-S1P to BSA as the laydown material in the ELISA. […] Similarly, KLH was exchanged for BSA as the protein that was complexed with thiolated-S1P as the laydown material.

Entries after “also recorded” stand apart in the source; their conditions may differ.

For `CC(=O)O[C@H]1C(=O)[C@@]2(C)[C@H]([C@H](OC(=O)c3ccccc3)[C@]3(O)C[C@H](OC(=O)[C@H](O)[C@@H](NC(=O)c4ccccc4)c4ccccc4)C(C)=C1C3(C)C)[C@]1(OC(C)=O)CO[C@@H]1C[C@@H]2O` [Taxol, paclitaxel], the “caspase-3,7 activation” value with SKOV3 cells (SKOV3 cells) was “induced caspase-3,7 activation”.

As for CysPhe, the “binding to S1P compared with the chimeric antibody” value in experiment [1] (ELISA, substitution of Cys 50 in heavy chain CDR2) is recorded as “did not alter the binding”. Besides, the Binding in experiment [1] worked out at 2 OD.

In turn, MetLeu showed a Binding in experiment [1] of 1.6 OD.

Consider lysophosphatidic acid [LPA], for which the “proliferative response to LPA” value with human cancer cell lines is given as “increased proliferation”. The “protection from Taxol-induced apoptosis” value with SKOV3 cells (Taxol 0.5 mM, 24 h) was “protected SKVO3 cells from Taxol-induced apoptosis”. For the same molecule, the “increase of IL-8 expression” value in the experiment on Caki-1 cells came to 100%.

B1: anti-S1P mAb: murine IgG1 kappa monoclonal antibody against S1P from hybridoma clone 306D326.26 (ATCC SD-5362) (antibody, listed as Mus musculus, V domains shown)
VH: QAHLQQSDAELVKPGASVKISCKVSGFIFIDHTIHWMKQRPEQGLEWIGCISPRHDITKYNEMFRGKATLTADKSSTTAYIQVNSLTFEDSAVYFCARGGFYGSTIWFDFWGQGTTLTVS
VL: ETTVTQSPASLSMAIGEKVTIRCITTTDIDDDMNWFQQKPGEPPNLLISEGNILRPGVPSRFSSSGYGTDFLFTIENMLSEDVADYYCLQSDNLPFTFGSGTKLEIK
For the molecule B1, the figures for the “competition for mAb binding to S1P on the plate” value in experiment [2], in experiment [3] (competitor DH-S1P) and in experiment [3] (competitor SPC (phosphate linked with choline)) were “can compete for binding”, “can compete for binding” and “somewhat reduced; also recorded: only slightly competes for binding”, respectively. In addition, the “discrimination of thiolated-S1P analog from natural S1P” value in experiment [3] (competition experiment) is recorded as “unable to distinguish”. For the same molecule, in experiment [4] (KLH complexed with thiolated-S1P), the “binding characteristics, laydown with KLH instead of BSA” value was “no significant difference”. The “binding characteristics, laydown with IOA instead of SMCC” value in experiment [4] (thiolated-S1P conjugated to BSA, compared with BSA-SMCC-thiolated-S1P) is listed as “nearly identical”.

For the origin of these results see patent US8796429B2, “Bioactive lipid derivatives, and methods of making and using same” (Lpath, Inc., priority 2006, dated 2014).
